{"source": "paper PMC4501319", "about": "“Discovery of Selective Small-Molecule Activators of a Bacterial Glycoside Hydrolase” (Angewandte Chemie (International Ed. in English), 2014)", "key": {"BtGH84 [1]": {"molecular_target": "T1, BtGH84 (Bacteroides thetaiotaomicron, UniProt Q89ZI2)", "T1 construct": "made in house", "T1 sequence (Q89ZI2 22-737, change not shown)": "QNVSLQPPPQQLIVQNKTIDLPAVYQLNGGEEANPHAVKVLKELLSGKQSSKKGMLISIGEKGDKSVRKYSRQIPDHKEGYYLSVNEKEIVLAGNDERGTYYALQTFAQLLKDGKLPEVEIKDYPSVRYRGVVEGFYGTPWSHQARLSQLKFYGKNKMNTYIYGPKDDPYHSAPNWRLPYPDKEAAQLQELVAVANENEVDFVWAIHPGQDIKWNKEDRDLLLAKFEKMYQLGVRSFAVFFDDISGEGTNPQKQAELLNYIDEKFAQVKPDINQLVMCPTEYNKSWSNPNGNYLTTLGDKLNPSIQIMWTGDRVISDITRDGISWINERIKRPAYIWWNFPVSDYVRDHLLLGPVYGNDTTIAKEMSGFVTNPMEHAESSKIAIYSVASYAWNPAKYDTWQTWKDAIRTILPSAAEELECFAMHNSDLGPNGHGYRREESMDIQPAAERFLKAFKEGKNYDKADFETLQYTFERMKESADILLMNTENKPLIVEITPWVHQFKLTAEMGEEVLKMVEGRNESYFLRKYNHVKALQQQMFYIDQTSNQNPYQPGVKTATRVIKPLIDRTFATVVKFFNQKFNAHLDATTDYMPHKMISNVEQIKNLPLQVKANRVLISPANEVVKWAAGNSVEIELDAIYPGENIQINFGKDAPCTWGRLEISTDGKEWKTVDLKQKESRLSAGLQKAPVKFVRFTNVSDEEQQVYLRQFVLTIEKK", "test": "Affinity by NMR spectroscopy using proton relaxation rates R2", "format": "binding", "experimental": "(§1) Compounds in the fragment library were purchased from Specs, additional structural neighbours were purchased from Specs and Enamine. O-(2-Acetamido-2-deoxy-D-glucopyranosylidene) amino-Z-N-phenylcarbamate (PUGNAc) was purchased from Tocris Bioscience.\n(§2) The fragment library was assembled as described by Schulz et al.[1] and dissolved in DMSO-d6 to a concentration of 200 mM and quality controlled using 1H NMR spectroscopy. Instant JChem 5.3.8, 2010, ChemAxon (http://www.chemaxon.com), was used for structure database management.\n(§3) NMR spectroscopy and fragment screening\n(§4) NMR experiments were carried out on a Bruker Avance II 700 MHz NMR spectrometer equipped with a triple resonance probe and z axis gradients. Data were processed using Topspin 3.2 software. Three NMR experiments were used for the screening, STD NMR,[2] PO-WaterLOGSY,[3] and T1ρ-filtered[4] 1H NMR experiments. […] The experiments were recorded using the standard STD NMR pulse sequence with a 15 ms 6 kHz spin-lock pulse to reduce the background protein resonances and excitation sculpting to suppress the water resonance. […]\nFigure S3. Dissociation constant of 2 for BtGH84 determined in the presence of PUGNAc with 1H R2 relaxation rates. […]"}, "BtGH84 [2]": {"molecular_target": "T1, BtGH84", "test": "4MU-GlcNAc cleavage assay (fluorescent kinetic enzyme activity assay)", "format": "biochemical", "settings": "for Vmax(app): Michaelis–Menten fit, 1 % DMSO, substrate 50 μM to 2 mM, activator concentration 2 mM; for Kd: affinity of activator to the substrate-bound enzyme, read-out: αKA; for Vmax / α / β: non-essential activator equation fit to covariation experiments; for Vmax: activator 50 µM to 2 mM; for α: modifies KM; for β: modifies Vmax/kcat; for Emax: read-out: Maximum activation", "experimental": "AC50 measurements of fragment activators were performed using a fluorescent kinetic assay. Assays were carried out in a 96 well plate (Black Nunc F96 MicroWell Plates) at 25°C in a total volume of 100 μl per well, buffer (50 mM MES pH 6.5, 200 mM NaCl, 0.01% Tween-20, 1% DMSO) with 500 μM 4-methylumbelliferyl-β-D-GlcNAc (4MU-GlcNAc), as substrate and 50 nM BtGH84. Reactions were initiated by addition of 10 μl of substrate, to a final concentration of 500 μM, followed by 5 s of shaking. Fluorescent 4-methylumbelliferyl release was recorded continuously at 355 nm excitation and 460 nm emission for 20 s using a BMG PolarStar Optima plate reader. Rates were calculated using Sigmaplot as the slope of the curve of the collected data. Corrections were made to the detected gradients to adjust for the inner filter effect of 4MU-GlcNAc and convert the gradients into units of μmol min-1 according to a standard curve of 4MU. […]\nKinetic experiments using 4MU-GlcNAc were carried out in an analogous manner except that reactions were initiated by a 10 μl injection of BtGH84, to a final concentration of 50 nM, in a well containing the substrate at the desired concentration. Values quoted throughout are mean and standard deviation of three independent […]\nApparent KM and Vmax values were calculated from a Michalis-Menten curve fit to 8-10 point substrate titrations at a constant concentration of the activator. The covariation experiments used the same range of substrate concentrations across an activator concentration range of 50 µM to 2 mM. The data obtained from these experiments was fit to the nonessential activator equation: […]\nHere, [S] is the concentration of the […], [A] the concentration of the activator, α modifies KM, β modifies Vmax and KA is the half-max concentration of the activator. […]"}, "[3]": {"tested_on": "β-N-Acetylglucosaminidase from Canavalia ensiformis (Jack bean)", "test": "4MU-GlcNAc substrate titration with commercially available β-N-acetylglucosaminidase", "format": "biochemical", "settings": "4MU-GlcNAc substrate titration at pH 4.9 and pH 6.5", "source_text": "Figure S8: Effect of activators 2 and 4 on a β-N-Acetylglucosaminidase from Canavalia ensiformis (Jack\n(B) titration at the same pH as used for the BtGH84 studies (pH 6.5).\nEnzyme supplied by Sigma (purified from native source).\n(1 picture or pasted object on this page, not shown here)"}, "Aqueous solubility": {"test": "Aqueous solubility", "format": "physicochemical"}, "BtGH84 [4]": {"molecular_target": "T1, BtGH84", "test": "STD NMR competition between activators", "format": "binding", "settings": "in the presence of 2 (25 mM) as competitor", "experimental": "as §1, §2, §3\nas §4, with “experiments. All NMR screening data were collected at 288K and the samples contained 20 μM BtGH84, fragments at a concentration of approximately 200 μM per compound and 20 μM of TSP in 25 mM phosphate buffer containing 150 mM NaCl and 10% D2O at pH 7.4.” for “experiments.”"}, "[5]": {"settings": "titration of activator from 50 μM to 2 mM, substrate concentration 500 μM"}}, "note": "“And” between values parts separate entries of the source, which are not always exact repeats. Equal entries are not always repeated."}
{"smiles": "CCOc1ncnc2ccccc12", "note": "[Compound 2, 4-ethoxyquinazoline]", "values": [{"measurement": "affinity for BtGH84", "setting": "BtGH84 [1]; in the absence of PUGNAc, compared with presence of PUGNAc", "result": "weaker"}, {"measurement": "Kd", "setting": "BtGH84 [1]; in the presence of PUGNAc (200 μM), 8 μM BtGH84, 298 K", "result": "3100 ± 700", "unit": "µM"}, {"measurement": "AC50", "setting": "BtGH84 [2]; activation, 4MU-GlcNAc substrate concentration 500 μM", "result": "3500 µM and ~3500 µM"}, {"measurement": "activation of β-N-acetylglucosaminidase", "setting": "[3]", "result": "do not increase the activity"}]}
{"smiles": "CCOc1ncnc2sc(C)c(C)c12", "note": "[Compound 3]", "values": [{"measurement": "aqueous solubility", "setting": "Aqueous solubility; compared to the original activator 2", "result": "poor"}, {"measurement": "highest concentration attainable at 1% DMSO", "setting": "Aqueous solubility; enzyme assay buffer, 1% DMSO", "result": 2, "unit": "mM"}, {"measurement": "Vmax(app)", "setting": "BtGH84 [2]", "result": "0.022 ± 0.001", "unit": "µmol/min"}, {"measurement": "Kd", "setting": "BtGH84 [2]; covariation experiments", "result": 1090, "unit": "µM"}, {"measurement": "βkcat", "setting": "BtGH84 [2]; covariation experiments", "result": 88.7, "unit": "s⁻¹"}, {"measurement": "Vmax", "setting": "BtGH84 [2]", "result": "0.019 ± 0.0007", "unit": "µmol/min"}, {"measurement": "α", "setting": "BtGH84 [2]", "result": "0.061 ± 0.04"}, {"measurement": "β", "setting": "BtGH84 [2]", "result": "1.4 ± 0.1"}, {"measurement": "AC50", "setting": "BtGH84 [2]; [5]", "result": "575 ± 78", "unit": "µM"}, {"measurement": "Emax", "setting": "BtGH84 [2]; [5]", "result": 284, "unit": "%"}]}
{"smiles": "Cc1sc2ncnc(N3CCOCC3)c2c1C", "note": "[Compound 4]", "values": [{"measurement": "Vmax(app)", "setting": "BtGH84 [2]", "result": "0.026 ± 0.002", "unit": "µmol/min"}, {"measurement": "Kd", "setting": "BtGH84 [2]; covariation experiments", "result": "~200 µM and 224 µM"}, {"measurement": "βkcat", "setting": "BtGH84 [2]; covariation experiments", "result": 100, "unit": "s⁻¹"}, {"measurement": "enhancement of substrate binding in the presence of the activator", "setting": "BtGH84 [2]; from α, covariation experiments", "result": "~7", "unit": "fold"}, {"measurement": "increase of kcat in the presence of the activator", "setting": "BtGH84 [2]; from β, covariation experiments", "result": 1.7, "unit": "fold"}, {"measurement": "Vmax", "setting": "BtGH84 [2]", "result": "0.018 ± 0.002", "unit": "µmol/min"}, {"measurement": "α", "setting": "BtGH84 [2]", "result": "0.14 and 0.14 ± 0.02"}, {"measurement": "β", "setting": "BtGH84 [2]", "result": "1.7 and 1.7 ± 0.1"}, {"measurement": "AC50", "setting": "BtGH84 [2]; [5]", "result": "259 ± 24", "unit": "µM"}, {"measurement": "Emax", "setting": "BtGH84 [2]; [5]", "result": 371, "unit": "%"}, {"measurement": "saturation transfer (STD NMR signal) from BtGH84 to activator", "setting": "BtGH84 [4]", "result": "significantly diminished"}, {"measurement": "activation of β-N-acetylglucosaminidase", "setting": "[3]", "result": "do not increase the activity"}]}
{"smiles": "CCc1cc2c(N3CCOCC3)ncnc2s1", "note": "[Compound 5]", "values": [{"measurement": "Vmax(app)", "setting": "BtGH84 [2]", "result": "0.024 ± 0.001", "unit": "µmol/min"}, {"measurement": "Kd", "setting": "BtGH84 [2]; covariation experiments", "result": "~200 µM and 205 µM"}, {"measurement": "βkcat", "setting": "BtGH84 [2]; covariation experiments", "result": 75.8, "unit": "s⁻¹"}, {"measurement": "Vmax", "setting": "BtGH84 [2]", "result": "0.018 ± 0.0008", "unit": "µmol/min"}, {"measurement": "α", "setting": "BtGH84 [2]", "result": "0.17 ± 0.02"}, {"measurement": "β", "setting": "BtGH84 [2]", "result": "1.3 ± 0.07"}, {"measurement": "AC50", "setting": "BtGH84 [2]; [5]", "result": "274 ± 12", "unit": "µM"}, {"measurement": "Emax", "setting": "BtGH84 [2]; [5]", "result": 329, "unit": "%"}, {"measurement": "saturation transfer (STD NMR signal) from BtGH84 to activator", "setting": "BtGH84 [4]", "result": "clear loss in signal intensity"}]}
{"smiles": "c1nc(N2CCOCC2)c2ccsc2n1", "note": "[Compound 6]", "values": [{"measurement": "Vmax(app)", "setting": "BtGH84 [2]", "result": "0.015 ± 0.002", "unit": "µmol/min"}, {"measurement": "AC50", "setting": "BtGH84 [2]; [5]", "result": "702 ± 85", "unit": "µM"}, {"measurement": "Emax", "setting": "BtGH84 [2]; [5]", "result": 234, "unit": "%"}]}
